Measurements from ChEMBL document CHEMBL4002549, “Synthesis and evaluation of halogenated 12N-sulfonyl matrinic butanes as potential anti-coxsackievirus agents” (Eur J Med Chem, 2017).

Experiments:
Coxsackievirus B3 = assay: Antiviral activity against Coxsackievirus B3 Nancy infected in African green monkey Vero cells assessed as inhibition of virus-induced cytopathic effect; assay type: functional; conditions: Enterovirus B
[1] = Cytotoxicity against African green monkey Vero cells assessed as cytopathic effect after 48 hrs; assay type: cell-based; conditions: chlorocebus sabaeus, read-out: TC50
[2] = Selectivity index, ratio of TC50 for African green monkey Vero cells to IC50 for Coxsackievirus B3 Nancy infected in African green monkey Vero cells; assay type: toxicity; conditions: read-out: Selectivity Index
[3] = Acute toxicity in po dosed Kunming mouse measured for 7 days; assay type: organism-based; conditions: in vivo
Coxsackievirus B5 = assay: Antiviral activity against Coxsackievirus B5 Faulkner infected in African green monkey Vero cells assessed as inhibition of virus-induced cytopathic effect; assay type: functional; conditions: Enterovirus B
[4] = Selectivity index, ratio of TC50 for African green monkey Vero cells to IC50 for Coxsackievirus B6 Schmitt infected in African green monkey Vero cells; assay type: toxicity; conditions: read-out: Selectivity Index
[5] = MRT in Sprague-Dawley rat at 25 mg/kg, po; assay type: ADME, organism-based; conditions: in vivo
[6] = Selectivity index, ratio of TC50 for African green monkey Vero cells to IC50 for Coxsackievirus B4 JVB infected in African green monkey Vero cells; assay type: toxicity; conditions: read-out: Selectivity Index
Coxsackievirus B4 = assay: Antiviral activity against Coxsackievirus B4 JVB infected in African green monkey Vero cells assessed as inhibition of virus-induced cytopathic effect; assay type: functional; conditions: Enterovirus B
[7] = Antiviral activity against Coxsackievirus B6 Schmitt infected in African green monkey Vero cells assessed as inhibition of virus-induced cytopathic effect; assay type: functional, Coxsackievirus B6 (strain Schmitt); conditions: Enterovirus B
Coxsackievirus B1 = assay: Antiviral activity against Coxsackievirus B1 Conn 5 infected in African green monkey Vero cells assessed as inhibition of virus-induced cytopathic effect; assay type: functional; conditions: Enterovirus B, Conn 5, Vero
[8] = AUC (0 to infinity) in Sprague-Dawley rat at 25 mg/kg, po; assay type: ADME, organism-based; parameters: dose 25 mg/kg, route oral, time infinity; conditions: in vivo
[9] = Half life in Sprague-Dawley rat at 25 mg/kg, po; assay type: ADME, organism-based; conditions: in vivo
[10] = Antiviral activity against Coxsackievirus B2 Ohio-1 infected in African green monkey Vero cells assessed as inhibition of virus-induced cytopathic effect; assay type: functional, Coxsackievirus B2 (strain Ohio-1); conditions: Enterovirus B
[11] = Selectivity index, ratio of TC50 for African green monkey Vero cells to IC50 for Coxsackievirus B2 Ohio-1 infected in African green monkey Vero cells; assay type: toxicity; conditions: read-out: Selectivity Index
[12] = Selectivity index, ratio of TC50 for African green monkey Vero cells to IC50 for Coxsackievirus B1 Conn 5 infected in African green monkey Vero cells; assay type: toxicity; conditions: read-out: Selectivity Index
[13] = Selectivity index, ratio of TC50 for African green monkey Vero cells to IC50 for Coxsackievirus B5 Faulkner infected in African green monkey Vero cells; assay type: toxicity; conditions: read-out: Selectivity Index
[14] = Cmax in Sprague-Dawley rat at 25 mg/kg, po; assay type: ADME, organism-based; parameters: dose 25 mg/kg, route oral; conditions: in vivo
[15] = AUC (0 to t) in Sprague-Dawley rat at 25 mg/kg, po; assay type: ADME, organism-based; conditions: in vivo
[16] = Tmax in Sprague-Dawley rat at 25 mg/kg, po; assay type: ADME, organism-based; conditions: in vivo

Compound	IC50 (Coxsackievirus B3) [µM]	CC50 at 48 h [1] [µM]	selectivity ratio [2]	also measured
C1CCN2C[C@@H]3CCCN4CCC[C@@H]([C@H]34)[C@H]2C1	57	652	11.4	–
NC(=O)c1cccc(S(=O)(=O)N2C[C@@H]3CCCN4CCC[C@@H]([C@H]34)[C@H]2CCO)c1	9.25	> 491	> 53.1	–
N#Cc1ccccc1S(=O)(=O)N1C[C@@H]2CCCN3CCC[C@@H]([C@H]23)[C@H]1CCCl	1.85	> 452	> 244	LD50 at 168 h [3]: 348 mg/kg
CCCC[C@@H]1[C@H]2CCCN3CCC[C@@H](CN1S(=O)(=O)c1ccccc1C#N)[C@@H]23	1.04	116 to 200	111	IC50 (Coxsackievirus B5): 0.69 µM; selectivity ratio [4]: 75.3; MRT [5]: 4.05 h; LD50 at 168 h [3]: > 500 mg/kg; selectivity ratio [6]: > 38.9; IC50 (Coxsackievirus B4): 5.14 µM; IC50 [7]: 2.06 µM; IC50 (Coxsackievirus B1): 1.52 µM; AUC(0-inf) [8]: 31.8 µM·h; half-life [9]: 2.48 h; IC50 [10]: 1.65 µM; selectivity ratio [11]: > 121; selectivity ratio [12]: > 132; selectivity ratio [13]: > 290; Cmax [14]: 3.07 µM; AUC(0-t) [15]: 30.9 µM·h; Tmax [16]: 1.33 h
CCCC[C@@H]1[C@H]2CCCN3CCC[C@@H](CN1S(=O)(=O)c1ccc(C(=O)OC)cc1)[C@@H]23	14.2	367	25.1	–
N#Cc1ccccc1S(=O)(=O)N1C[C@@H]2CCCN3CCC[C@@H]([C@H]23)[C@H]1CCCCCl	3.99	204	51.2	LD50 at 168 h [3]: 348 mg/kg
O=S(=O)(c1ccccc1/C=N/O)N1C[C@@H]2CCCN3CCC[C@@H]([C@H]23)[C@H]1CCO	0.87	> 491	> 565	LD50 at 168 h [3]: < 500 mg/kg
CC(=O)c1ccc(S(=O)(=O)N2C[C@@H]3CCCN4CCC[C@@H]([C@H]34)[C@H]2CCCl)cc1	12.2	251	20.5	–
CCCC[C@@H]1[C@H]2CCCN3CCC[C@@H](CN1S(=O)(=O)c1ccccc1C(=O)OC)[C@@H]23	7.24	320	44.1	–
O=S(=O)(c1cccc(C(F)(F)F)c1)N1C[C@@H]2CCCN3CCC[C@@H]([C@H]23)[C@H]1CCCCF	0.82	100	122	–
O=S(=O)(c1ccc(C(F)(F)F)cc1)N1C[C@@H]2CCCN3CCC[C@@H]([C@H]23)[C@H]1CCCCF	1.19	144	121	–
N#Cc1cccc(S(=O)(=O)N2C[C@@H]3CCCN4CCC[C@@H]([C@H]34)[C@H]2CCF)c1	74.8	> 512	> 6.84	–
CCCC[C@@H]1[C@H]2CCCN3CCC[C@@H](CN1S(=O)(=O)c1ccccc1[N+](=O)[O-])[C@@H]23	2.47	228	92.5	–
N#Cc1cccc(S(=O)(=O)N2C[C@@H]3CCCN4CCC[C@@H]([C@H]34)[C@H]2CCCl)c1	3.23	313	97	LD50 at 168 h [3]: 348 mg/kg
CCCC[C@@H]1[C@H]2CCCN3CCC[C@@H](CN1S(=O)(=O)c1ccc(N)cc1)[C@@H]23	23	82.9	3.6	–
N#Cc1cccc(S(=O)(=O)N2C[C@@H]3CCCN4CCC[C@@H]([C@H]34)[C@H]2CCCCF)c1	4.49	276	61.4	LD50 at 168 h [3]: 654 mg/kg
O=S(=O)(c1ccc(C(F)(F)F)cc1)N1C[C@@H]2CCCN3CCC[C@@H]([C@H]23)[C@H]1CCF	13	358	27.6	–
CCCC[C@@H]1[C@H]2CCCN3CCC[C@@H](CN1S(=O)(=O)c1cccc(C#N)c1)[C@@H]23	1.14	96.2	84.3	–
CCCC[C@@H]1[C@H]2CCCN3CCC[C@@H](CN1S(=O)(=O)c1cccc(C(=O)OC)c1)[C@@H]23	1.45	73.7	50.9	–
N#Cc1cccc(S(=O)(=O)N2C[C@@H]3CCCN4CCC[C@@H]([C@H]34)[C@H]2CCCCCl)c1	8.39	204	24.3	–
NC(=O)c1ccc(S(=O)(=O)N2C[C@@H]3CCCN4CCC[C@@H]([C@H]34)[C@H]2CCO)cc1	16	> 491	> 30.7	–
N#Cc1ccccc1S(=O)(=O)N1C[C@@H]2CCCN3CCC[C@@H]([C@H]23)[C@H]1CCCCF	17.7	230	13	LD50 at 168 h [3]: 560 mg/kg
CCCC[C@@H]1[C@H]2CCCN3CCC[C@@H](CN1S(=O)(=O)c1ccc(OC)cc1)[C@@H]23	5.8	96.2	16.6	–
CCCC[C@@H]1[C@H]2CCCN3CCC[C@@H](CN1S(=O)(=O)c1ccc(NC(C)=O)cc1)[C@@H]23	2.47	96.2	38.9	–
O=S(=O)(c1ccccc1C(F)(F)F)N1C[C@@H]2CCCN3CCC[C@@H]([C@H]23)[C@H]1CCCCF	16.8	229	13.6	–
N#Cc1ccc(S(=O)(=O)N2C[C@@H]3CCCN4CCC[C@@H]([C@H]34)[C@H]2CCCCF)cc1	7.51	276	36.7	LD50 at 168 h [3]: 353 mg/kg
NC(=O)c1ncn([C@@H]2O[C@H](CO)[C@@H](O)[C@H]2O)n1 [RIBAVIRIN]	379 to 695	6360 to 8200	11.8 to 16.8	IC50 (Coxsackievirus B5): 3320 µM; IC50 (Coxsackievirus B4): > 500 µM; IC50 [7]: 2090 µM; IC50 (Coxsackievirus B1): 2380 µM; IC50 [10]: > 500 µM
